# Data reported in patent publication US7855213B2 (AstraZeneca AB, priority 2006, dated 2010).
# Counter-ions that a name gives are not always drawn.
# Biological target: T1, human β-Secretase (Homo sapiens, UniProt P56817)
# T1 construct: The soluble part of the human β-Secretase (AA 1-AA 460) was cloned; made in house
# Experiment: TR-FRET assay
# Format: biochemical
# T1 sequence (P56817 22-460): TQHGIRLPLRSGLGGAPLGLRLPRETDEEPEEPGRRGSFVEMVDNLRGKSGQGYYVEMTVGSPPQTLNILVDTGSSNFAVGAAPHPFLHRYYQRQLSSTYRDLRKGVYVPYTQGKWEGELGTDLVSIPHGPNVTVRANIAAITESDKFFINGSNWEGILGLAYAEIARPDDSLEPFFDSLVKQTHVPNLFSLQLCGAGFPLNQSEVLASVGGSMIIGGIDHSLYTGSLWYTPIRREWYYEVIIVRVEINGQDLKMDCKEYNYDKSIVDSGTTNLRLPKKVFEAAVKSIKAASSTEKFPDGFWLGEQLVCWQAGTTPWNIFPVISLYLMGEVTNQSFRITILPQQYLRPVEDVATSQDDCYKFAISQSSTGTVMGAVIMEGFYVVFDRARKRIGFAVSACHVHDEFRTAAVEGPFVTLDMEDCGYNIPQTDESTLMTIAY
row,Structure (SMILES),IC50 [µM]
1,"NC1=NC(c2cccc(-c3cccnc3F)c2)(c2ccc3c(c2)OCCO3)c2ccccc21 (stereo not drawn) [Example 15, 3-(2,3-Dihydrobenzo[b][1,4]dioxin-6-yl)-3-(3-(2-fluoropyridin-3-yl)phenyl)-3H-isoindol-1-amine trifluoroacetate]",0.748
2,"NC1=NC(c2ccccc2)(c2ccccc2)c2ccccc21 [Example 1, 3,3-Diphenyl-3H-isoindol-1-ylamine]",9.14
3,"COc1cccc(-c2cccc(C3(c4ccncc4)N=C(N)c4ccccc43)c2)c1 (stereo not drawn) [Example 47, 3-(3′-Methoxy-biphenyl-3-yl)-3-pyridin-4-yl-3H-isoindol-1-ylamine trifluoroacetate]",0.055
4,"NC1=NC(c2cccc(-c3cccnc3F)c2)(c2ccnc(F)c2)c2ccccc21 (stereo not drawn) [Example 117, 1-(2-Fluoropyridin-4-yl)-1-[3-(2-fluoropyridin-3-yl)phenyl]-1H-isoindol-3-amine]",0.1
5,"CC(C)c1cc(C2(c3cccc(-c4cccnc4F)c3)N=C(N)c3ccccc32)ccn1 (stereo not drawn) [Example 115, 1-[3-(2-Fluoropyridin-3-yl)phenyl]-1-(2-isopropylpyridin-4-yl)-1H-isoindol-3-amine]",0.21
6,"CCc1cc(C2(c3cccc(-c4cncnc4)c3)N=C(N)c3ccccc32)ccn1 (stereo not drawn) [Example 111, 1-(2-Ethylpyridin-4-yl)-1-(3-pyrimidin-5-ylphenyl)-1H-isoindol-3-amine]",0.095
7,"COc1ccc(C2(c3cccc(-c4cccnc4)c3)N=C(N)c3ccccc32)cc1 (stereo not drawn) [Example 9, 3-(4-Methoxy-phenyl)-3-(3-pyridin-3-yl-phenyl)-3H-isoindol-1-ylamine trifluoroacetate]",0.154
8,"COc1ccc(C2(c3ccc(O)c(-c4cccc(OC)c4)c3)N=C(N)c3ccccc32)cc1 (stereo not drawn) [Example 4, 5-[3-Amino-1-(4-methoxy-phenyl)-1H-isoindol-1-yl]-3′-methoxy-biphenyl-2-ol trifluoroacetate]",0.067
9,"COc1cc(OS(C)(=O)=O)cc(-c2cccc(C3(c4ccc5c(c4)OCCO5)N=C(N)c4ccccc43)c2)c1 (stereo not drawn) [Example 26, 5′-(3-Amino-1-(2,3-dihydrobenzo[b][1,4]dioxin-6-yl)-1H-isoindol-1-yl)-5-methoxybiphenyl-3-yl methanesulfonate trifluoroacetate]",1.28
10,"NC1=NC(c2ccc(F)c(-c3cccnc3F)c2)(c2ccncc2F)c2ccccc21 (stereo not drawn) [Example 76, 1-[4-Fluoro-3-(2-fluoropyridin-3-yl)phenyl]-1-(3-fluoropyridin-4-yl)-1H-isoindol-3-amine 1.5 acetate]",0.1
11,"CCc1cc(C2(c3cccc(-c4cccnc4F)c3)N=C(N)c3ccccc32)ccn1 (stereo not drawn) [Example 112, 1-(2-Ethylpyridin-4-yl)-1-[3-(2-fluoropyridin-3-yl)phenyl]-1H-isoindol-3-amine]",0.096
12,"COc1ccc(C2(c3cccc(-c4ccc(C)o4)c3)N=C(N)c3ccccc32)cc1 (stereo not drawn) [Example 54, 1-(4-Methoxyphenyl)-1-[3-(5-methyl-2-furyl)phenyl]-1H-isoindol-3-amine 0.5 acetate]",1
13,"COc1ccc(C2(c3ccc(O)c(-c4cccnc4)c3)N=C(N)c3ccccc32)cc1 (stereo not drawn) [Example 7, 4-[3-Amino-1-(4-methoxy-phenyl)-1H-isoindol-1-yl]-2-pyridin-3-yl-phenol trifluoroacetate]",0.086
14,"NC1=NC(c2ccc(OS(=O)(=O)C(F)(F)F)cc2)(c2ccc(F)c(-c3cncnc3)c2)c2ccccc21 (stereo not drawn) [Example 136, 4-[3-Amino-1-(4-fluoro-3-pyrimidin-5-ylphenyl)-1H-isoindol-1-yl]phenyl trifluoromethanesulfonate]",0.457
15,"NC1=NC(c2ccncc2)(c2cccc(-c3cccnc3)c2)c2ccccc21 (stereo not drawn) [Example 44, 3-Pyridin-4-yl-3-(3-pyridin-3-yl-phenyl)-3H-isoindol-1-ylamine trifluoroacetate]",0.213
16,"NC1=NC(c2ccncc2)(c2cccc(-c3cncnc3)c2)c2ccccc21 (stereo not drawn) [Example 45, 3-Pyridin-4-yl-3-(3-pyrimidin-5-yl-phenyl)-3H-isoindol-1-ylamine trifluoroacetate]",0.501
17,"N#Cc1ccc(C2(c3cccc(-c4cncnc4)c3)N=C(N)c3ccccc32)cc1 (stereo not drawn) [Example 58, 4-[3-Amino-1-(3-pyrimidin-5-ylphenyl)-1H-isoindol-1-yl]benzonitrile 0.25 acetate]",0.71

row,Structure (SMILES),IC50 [µM]
1,"COc1ccc(F)c(-c2cccc(C3(c4ccncc4F)N=C(N)c4ccccc43)c2)c1 (stereo not drawn) [Example 99, 1-(2′-Fluoro-5′-methoxybiphenyl-3-yl)-1-(3-fluoropyridin-4-yl)-1H-isoindol-3-amine]",0.22
2,"NC1=NC(c2cccc(-c3cccnc3F)c2)(c2ccncc2F)c2ccccc21 (stereo not drawn) [Example 73, 1-(3-Fluoropyridin-4-yl)-1-[3-(2-fluoropyridin-3-yl)phenyl]-1H-isoindol-3-amine 1.25 acetate]",0.13
3,"COc1ccc(C2(c3cccc(-c4cc(OC)cc(OS(C)(=O)=O)c4)c3)N=C(N)c3ccccc32)cc1 (stereo not drawn) [Example 14, Methanesulfonic acid 3′-[3-amino-1-(4-methoxy-phenyl)-1H-isoindol-1-yl]-5-methoxy-biphenyl-3-yl ester trifluoroacetate]",0.153
4,"COc1ccc(C2(c3cccc(-c4cncc(OC)c4)c3)N=C(N)c3ccccc32)cc1 (stereo not drawn) [Example 12, 3-(4-Methoxy-phenyl)-3-[3-(5-methoxy-pyridin-3-yl)-phenyl]-3H-isoindol-1-ylamine trifluoroacetate]",0.068
5,"CS(=O)(=O)Oc1ccc(C2(c3cccc(-c4cccnc4)c3)N=C(N)c3ccccc32)cc1 (stereo not drawn) [Example 35, Methanesulfonic acid 4-[3-amino-1-(3-pyridin-3-yl-phenyl)-1H-isoindol-1-yl]-phenyl ester trifluoroacatete]",0.95
6,"COc1cncc(-c2cccc(C3(c4ccc(OC)c(C)c4)N=C(N)c4ccccc43)c2)c1 (stereo not drawn) [Example 21, 3-(4-Methoxy-3-methyl-phenyl)-3-[3-(5-methoxy-pyridin-3-yl)-phenyl]-3H-isoindol-1-ylamine trifluoroacetate]",0.042
7,"COc1ccc(C2(c3ccc(F)c(-c4cccnc4F)c3)N=C(N)c3ccccc32)cc1C (stereo not drawn) [Example 128, 1-[4-Fluoro-3-(2-fluoropyridin-3-yl)phenyl]-1-(4-methoxy-3-methylphenyl)-1H-isoindol-3-amine]",0.04
8,"CS(=O)(=O)Oc1ccc(C2(c3cccc(-c4cncnc4)c3)N=C(N)c3ccccc32)cc1 (stereo not drawn) [Example 38, Methanesulfonic acid 4-[3-amino-1-(3-pyrimidin-5-yl-phenyl)-1H-isoindol-1-yl]-phenyl ester trifluoroacetate]",0.706
9,"NC1=NC(c2cncc(F)c2)(c2cccc(-c3cccnc3F)c2)c2ccccc21 (stereo not drawn) [Example 124, 1-(5-Fluoropyridin-3-yl)-1-[3-(2-fluoropyridin-3-yl)phenyl]-1H-isoindol-3-amine]",0.56
10,"NC1=NC(c2ccc(F)c(-c3cncc(F)c3)c2)(c2ccncc2F)c2ccccc21 (stereo not drawn) [Example 75, 1-[4-Fluoro-3-(5-fluoropyridin-3-yl)phenyl]-1-(3-fluoropyridin-4-yl)-1H-isoindol-3-amine 1.5 acetate]",0.28
11,"CC1(c2cccc(-c3cncc(F)c3)c2)N=C(N)c2ccccc21 (stereo not drawn) [Example 98, 1-[3-(5-Fluoropyridin-3-yl)phenyl]-1-methyl-1H-isoindol-3-amine acetate]",2
12,"NC1=NC(c2cccc(-c3cncnc3)c2)(c2ccnc(Cl)c2)c2ccccc21 (stereo not drawn) [Example 122, 1-(2-Chloropyridin-4-yl)-1-(3-pyrimidin-5-ylphenyl)-1H-isoindol-3-amine]",0.16
13,"NC1=NC(c2cccc(OS(=O)(=O)C(F)(F)F)c2)(c2ccc(F)c(-c3cncnc3)c2)c2ccccc21 (stereo not drawn) [Example 134, 3-[3-Amino-1-(4-fluoro-3-pyrimidin-5-ylphenyl)-1H-isoindol-1-yl]phenyl trifluoromethanesulfonate]",0.347
14,"COc1ccc(C2(c3cccc(-c4cccnc4)c3)N=C(N)c3ccccc32)cc1C (stereo not drawn) [Example 22, 3-(4-Methoxy-3-methyl-phenyl)-3-(3-pyridin-3-yl-phenyl)-3H-isoindol-1-ylamine trifluoroacetate]",0.145
15,"COc1ccc(C2(c3cccc(-c4cccnc4)c3)N=C(N)c3ccc(F)cc32)cc1 (stereo not drawn) [Example 79, 6-Fluoro-1-(4-methoxyphenyl)-1-(3-pyridin-3-ylphenyl)-1H-isoindol-3-amine]",0.054
16,"N#Cc1cncc(-c2cccc(C3(c4ccncc4F)N=C(N)c4ccccc43)c2)c1 (stereo not drawn) [Example 102, 5-{3-[3-Amino-1-(3-fluoropyridin-4-yl)-1H-isoindol-1-yl]phenyl}nicotinonitrile]",0.31
